Where “and” joins values, the source holds several entries; their conditions need not be identical. Identical values can stand only once. Like-named read-outs stand apart in the source and are kept apart here.
Legend:
Hsp90 Brain = assay: Hsp90 competition assay, brain homogenate; assay type: binding, mouse; settings: for EC50: normal tissue; for Brain/SKBr3: ratio of EC50 Hsp90 values
Description: (§3) Hsp90 competition assay. Fluorescence polarization measurements were performed on an Analyst AD instrument (Molecular Devices, Sunnyvale, Calif.). […] The assay buffer (HFB) contained 20 mM HEPES (K) pH 7.3, 50 mM KCl, 5 mM MgCl2, 20 mM Na2MoO4, 0.01% NP40. Before each use, 0.1 mg/mL bovine gamma globulin (BGG) (Panvera Corporation, Madison, Wis.) and 2 mM DTT (Fisher Biotech, Fair Lawn, N.J.) were freshly added. […] Cell lysates were prepared rupturing cellular membranes by freezing at −70° C. and dissolving the cellular extract in HFB with added protease and phosphotase inhibitors. Organs were harvested from a healthy mouse and homogenized in HFB. Saturation curves were recorded in which GM-BODIPY (5 nM) was treated with increasing amounts of cellular lysates.

[1] = system: renal proximal tubular epithelial cells (RPTEC); assay: Growth inhibition of normal RPTEC cells; assay type: cell-based, human; settings: for IC50: 72 h, read-out: IC50 RPTEC
Description: (§1) Cell culture. The human breast cancer cell lines SKBr3 and MDA-MB-468 were a gift from Dr. Neal Rosen (MSKCC). Cells were maintained in 1:1 mixture of DME:F12 supplemented with 2 mM glutamine, 50 units/mL penicillin, 50 […] and 10% heat inactivated fetal bovine serum (Gemini Bioproducts #100-10b) and incubated at 37° C., 5% CO2. Growth assays. Growth inhibition studies were performed using the sulforhodamine B assay as previously described.^29 In summary, experimental cultures were plated in microtiter plates (Nunc #167008). One column of wells was left without cells to serve as the blank control. Cells were allowed to attach overnight. The following day, growth medium having either drug or DMSO at twice the desired initial concentration was added to the plate in triplicate and was serially diluted at a 1:1 ratio in the microtiter plate. After 72 h of growth, the cell number in treated versus control wells was estimated after treatment with 50% trichloroacetic acid and staining with 0.4% sulforhodamine B in 1% acetic acid. […] Normal human renal proximal tubular epithelial (RPTEC) cells were purchased pre-seeded in 96-well plates (Clonetics, CC-3190). Upon receipt, cells were placed in a humidified incubator at 37° C., 5% CO2 and allowed to equilibrate for 3 h. Media was removed by suction and replaced with fresh media provided by the manufacturer. Cells were then treated with either drugs or DMSO for 72 h and the IC50 values were determined as described above.

Hsp90 SKBr3 = assay: Hsp90 competition assay, SKBr3 cell lysate; settings: read-out: EC50 Hsp90 SKBr3
Description: Hsp90 competition assay. Fluorescence polarization measurements were performed on an Analyst AD instrument (Molecular Devices, Sunnyvale, Calif.). […] The assay buffer (HFB) contained 20 mM HEPES (K) pH 7.3, 50 mM KCl, 5 mM MgCl2, 20 mM Na2MoO4, 0.01% NP40. Before each use, 0.1 mg/mL bovine gamma globulin (BGG) (Panvera Corporation, Madison, Wis.) and 2 mM DTT (Fisher Biotech, Fair Lawn, N.J.) were freshly added. GM-BODIPY was synthesized as previously reported^23a and was dissolved in DMSO to form 10 μM solutions. Recombinant Hsp90α was purchased from Stressgen Bioreagents (cat. No. SPP-776), (Victoria, Canada). Cell lysates were prepared rupturing cellular membranes by freezing at −70° C. and dissolving the cellular extract in HFB with added protease and phosphotase inhibitors. […] Saturation curves were recorded in which GM-BODIPY (5 nM) was treated with increasing amounts of cellular lysates.

MDA-MB-468 cells = assay: Anti-mitotic assay (Tg-3 microtiter immunoassay); assay type: cell-based, human; settings: 24 h, concentration dependent increase in Tg-3 luminescence
Description: Anti-mitotic assay. Black, clear-bottom microtiter 96-well plates (Corning Costar #3603) were used to accommodate experimental cultures. MDA-MB-468 cells were seeded in each well at 8,000 cells per well in growth medium (100 μL), and allowed to attach overnight at 37° C. and 5% CO2. Growth medium (100 μL) with drug or vehicle (DMSO) was gently added to the wells, and the plates were incubated at 37° C. and 5% CO2 for 24 h. Wells were washed with ice-cold TBST (2×200 μL). A house vacuum source attached to an eight-channel aspirator was used to remove the liquid from the 96-well plates. Ice-cold methanol (100 μL) was added to each well, and the plate was placed at 4° C. for 5 min. Methanol was removed by suction and plates were washed with ice-cold TBST (2×200 μL). Plates were further incubated with SuperBlock® blocking buffer (Pierce #37535) (200 μL) for 2 h at RT. The Tg-3 antibody (gift of Dr. Davies, Albert Einstein College of Medicine) diluted 1:200 in SuperBlock® was placed in each well (100 μL) except the control column that was treated with control antibody (Mouse IgM, NeoMarkers, NC-1030-P). After 72 h, wells were washed with ice-cold TBST (2×200 μL). […] Un-reacted antibody was removed by washing the plates with ice-cold TBST (3×200 μL) for 5 min on a shaker. The ECLTM Western Blotting Detection Reagents 1 and 2 in 1:1 mix (100 μL) was placed in each well and the plates were read immediately in an Analyst AD plate reader (Molecular Devices). Luminescence readings were imported into SOFTmax PROR 4.3.1. Anti-mitotic activity was defined as a concentration dependent increase in luminescence readings in compound-treated wells as compared to DMSO only treated wells.

Her2 = Her2 assay (microtiter immunoassay of Her2 degradation); assay type: cell-based, human
Description: Her2 assay. SKBr3 cells were plated in black, clear-bottom microtiter plates (Corning #3603) at 3,000 cells/well in growth medium (100 μl) and allowed to attach for 24 h at 37° C. and 5% CO2. Growth medium (100 μl) with drug or vehicle (DMSO) was carefully added to the wells, and the plates were placed at 37° C. and 5% CO2. Following 24 h incubation with drugs, wells were washed with ice-cold Tris buffer saline (TBS) containing 0.1% Tween 20 (TBST) (200 μl). A house vacuum source attached to an eight-channel aspirator was used to remove the liquid from the plates. Further, methanol (100 μl at −20° C.) was added to each well, and the plate was placed at 4° C. for 10 min. Methanol was removed by washing with TBST (2×200 μl). After further incubation at RT for 2 h with SuperBlockR (Pierce 37535) (200 μl), anti-Her-2 (c-erbB-2) antibody (Zymed Laboratories #28-004) (100 μl, 1:200 in SuperBlockR) was placed in each well. The plate was incubated overnight at 4° C. For control wells, 1:200 dilution of a normal rabbit IgG (Santa Cruz #SC-2027) in SuperblockR was used. Each well was washed with TBST (2×200 μl) and incubated at RT for 2 h with an anti-rabbit HRP-linked antibody (Sigma, A-0545) (100 μl, 1:2000 in SuperBlockR). Unreacted antibody was removed by washing with TBST (3×200 μl), and the ECLTM Western blotting reagent (Amersham #RPN2106) (100 μL) was added. The plate was immediately read in an Analyst AD plate reader (Molecular Devices). Each well was scanned for 0.1 s. Readings from wells containing only control IgG and the corresponding HRP-linked secondary antibody were set as background and deducted from all measured values.

recombinant Hsp90α = recombinant Hsp90α (Homo sapiens (Human), UniProt P07900); assay: Hsp90 competition assay (fluorescence polarization), recombinant protein; assay type: binding; settings: average of 3 measurements, displacement of fluorescent GM
Description: Hsp90 competition assay. Fluorescence polarization measurements were performed on an Analyst AD instrument (Molecular Devices, Sunnyvale, Calif.). […] The assay buffer (HFB) contained 20 mM HEPES (K) pH 7.3, 50 mM KCl, 5 mM MgCl2, 20 mM Na2MoO4, 0.01% NP40. Before each use, 0.1 mg/mL bovine gamma globulin (BGG) (Panvera Corporation, Madison, Wis.) and 2 mM DTT (Fisher Biotech, Fair Lawn, N.J.) were freshly added. GM-BODIPY was synthesized as previously reported^23a and was dissolved in DMSO to form 10 μM solutions.

[2] = system: SKBr3 breast cancer cells; assay: Growth inhibition, sulforhodamine B assay; assay type: cell-based, human; settings: average of 3 measurements
Description: as §1

SCLC cell lines = assay: Cell death and apoptosis across the SCLC cell lines; assay type: cell-based; settings: each of the SCLC cell lines, FIGS. 6A and B
Hsp90 lung = assay: Hsp90 competition assay, lung homogenate; settings: for Lung/SKBr3: ratio of EC50 Hsp90 values; for EC50: read-out: EC50 Hsp90 lung, normal tissue
Description: as §3

Hsp90 heart = assay: Hsp90 competition assay, heart homogenate; settings: for Heart/SKBr3: ratio of EC50 Hsp90 values; for EC50: read-out: EC50 Hsp90 heart, normal tissue
Description: as §3

Solubility in PBS = assay type: physicochemical; settings: aqueous buffer, acid addition salt form
Description: Growth over 96 h was assessed.

[3] = Tumor and plasma concentration in MDA-MB-468 xenografted mice; assay type: in vivo; settings: 24 hours after intraperitoneal injection
Description: (§2) Mice xenografted with MDA-MB-468 human breast cancer tumors were treated by intraperitoneal injection with Compound 5 at a dosage levels of 25, 50, 75, 100 and 150 mg/kg. The concentration of Compound 5 in the tumor 24 hours after administration was determined. […] Compound 5 was further tested for its effects on the pharmacodynamic marker Raf-1 kinase. Hsp90 stabilizes this kinase and maintains it in ready-to-be-activated conformation. Inhibition of Hsp90 leads to disruption of the complex and further ubiquitinylation and degradation of Raf-1 by the proteasome. Thus, Raf-1 degradation in tumors is a functional read-out of Hsp90 inhibition.

PI3 kinase = PI3 kinase expression in MDA-MB-468 tumors; assay type: in vivo, mice; settings: protein unaffected by Hsp90 inhibitors
Raf-1 kinase = assay: Raf-1 protein levels in MDA-MB-468 tumors; assay type: in vivo, mice; settings: all dosage levels, FIG. 10B
Description: as §2

[4] = Homo sapiens, SK-BR-3; Her2 degradation in SKBr3 cells, 24 h; average of 3 measurements
[5] = Her2 degradation in SKBr3 cells, 24 h; average of 3 measurements

Molecule	EC50 (recombinant Hsp90α; read-out: EC50 Hsp90-α)	IC50 ([2]; Homo sapiens, SK-BR-3, 72 h)	Anti-mitotic (MDA-MB-468 cells)	IC50 (Her2; [4])	also measured
9-(Pent-4-ynyl)-8-(2,4,5-trichloro-phenylsulfanyl)adenine [Example 2]	–	–	–	–	EC50 (Hsp90 Brain): 26.7 ± 7.7 µM; Brain/SKBr3 (Hsp90 Brain): 298; IC50 ([1]; normal cells): 28.1 ± 2.2 µM; RPTEC/SKBr3 ([1]; ratio of growth IC50 values): 15.6; EC50 (Hsp90 SKBr3): 0.09 ± 0.03 µM
Nc1ncnc2nc(Sc3cc(Cl)c(Cl)cc3Cl)[nH]c12 [Example 4, 8-(2,4,5-Trichloro-phenylsulfanyl)adenine]	15.4 ± 2.2 µM	36 ± 0.2 µM	Yes	47.8 ± 3.2 µM	–
C#CCCCn1c(Sc2cc(Cl)c(Cl)cc2Cl)nc2c(N)ncnc21 [Example 2, 9-(Pent-4-ynyl)-8-(2,4,5-trichloro-phenylsulfanyl)adenine]	8.5 ± 0.1 µM	48.4 ± 2.5 µM	No	58 ± 1.4 µM	–
COc1cc(Sc2nc3c(N)ncnc3n2CCOC(C)C)c(Cl)cc1Cl [Example 3, 9-(2-Isopropoxy-ethyl)-8-(2,4-dichloro-5-methoxy-benzenesulfanyl)adenine]	5 ± 1.1 µM	–	No	–	IC50 (Her2; [5]): 58.3 ± 2.2 µM; IC50 ([2]; 72 h): 16.1 ± 0.7 µM
C#CCCCn1c(Sc2cc3c(cc2Br)OCO3)nc2c(N)ncnc21 [Example 1, 9-(Pent-4-ynyl)-8-(6-bromo-benzo[1,3]dioxol-5-ylsulfanyl)adenine]	–	–	Yes	–	induction of apoptosis (SCLC cell lines): induced apoptosis; EC50 (Hsp90 Brain): 40.2 ± 25.3 µM; Brain/SKBr3 (Hsp90 Brain): 2000; IC50 ([1]; Homo sapiens, RPTEC): 4.1 ± 0.9 µM; IC50 (Her2; [5]): 0.365 ± 0.045 µM; IC50 (Her2; Homo sapiens, SK-BR-3, 24 h, Her2 degradation in SKBr3 cells, average of 3 measurements): 0.3 ± 0.05 µM; EC50 (recombinant Hsp90α; EC50 Hsp90-α): 0.03 µM and 0.0508 µM; Lung/SKBr3 (Hsp90 lung): 735; EC50 (Hsp90 lung): 14.7 ± 1.7 µM; Heart/SKBr3 (Hsp90 heart): 3265; EC50 (Hsp90 heart): 65.3 ± 9.9 µM; EC50 (Hsp90 SKBr3): 0.02 ± 0.06 µM
C#CCCCn1c(Cc2cc3c(cc2Cl)OCO3)nc2c(N)nc(F)nc21 [Example 7, 2-Fluoro-8-(6-chloro-benzo[1,3]dioxol-5-ylmethyl)-9-(pent-4-ynyl)adenine]	0.0772 ± 0.001 µM	0.25 ± 0.03 µM	Yes	0.3 ± 0.015 µM	–
CC(C)NCCCn1c(Sc2cc3c(cc2Br)OCO3)nc2c(N)ncnc21 [Example 5, 8-(6-Bromo-benzo[1,3]dioxol-5-ylsulfanyl)-9-(3-isopropylamino-propyl)adenine]	–	0.142 ± 0.022 µM	Yes	–	detection in plasma [3]: could not be detected; expression of PI3 kinase (PI3 kinase): no change in expression; Raf-1 levels (% control) (Raf-1 kinase): substantial decrease
C#CCCCn1c(Cc2cc3c(cc2Br)OCO3)nc2c(N)nc(F)nc21 [Example 6, 2-Fluoro-8-(6-bromo-benzo[1,3]dioxol-5-ylmethyl)-9-(pent-4-ynyl)adenine]	0.0565 ± 0.002 µM	0.215 ± 0.055 µM	Yes	0.21 ± 0.01 µM	Lung/SKBr3 (Hsp90 lung): 134; EC50 (Hsp90 lung): 5.2 ± 0.21 µM; Heart/SKBr3 (Hsp90 heart): 343; EC50 (Hsp90 heart): 13.3 ± 0.21 µM; EC50 (Hsp90 SKBr3): 0.0388 ± 0.003 µM

Second part, led by results:

EC50 (recombinant Hsp90α; read-out: EC50 Hsp90-α)	IC50 ([2]; Homo sapiens, SK-BR-3, 72 h)	Molecule	Anti-mitotic (MDA-MB-468 cells)	IC50 (Her2; [4])	also measured
> 15 µM	> 50 µM	C#CCCCn1c(Cc2cc(OC)c(OC)cc2I)nc2c(N)nc(F)nc21 [Example 12, 2-Fluoro-8-(2-iodo-4,5-dimethoxy-benzyl)-9-(pent-4-ynyl)adenine]	No	> 50 µM	–
0.0223 ± 0.002 µM	0.09 ± 0.03 µM	C#CCCCn1c(Cc2cc3c(cc2I)OCO3)nc2c(N)nc(F)nc21 [Example 11, 2-Fluoro-8-(6-iodo-benzo[1,3]dioxol-5-ylmethyl)-9-(pent-4-ynyl)adenine]	Yes	0.09 ± 0.01 µM	–
0.0504 ± 0.004 µM	0.045 ± 0.006 µM	CC(C)NCCCn1c(Cc2cc3c(cc2I)OCO3)nc2c(N)nc(F)nc21 [Example 8, 2-Fluoro-8-(6-iodo-benzo[1,3]dioxol-5-ylmethyl)-9-(3-isopropylamino-propyl) adenine]	Yes	0.08 ± 0.01 µM	solubility (Solubility in PBS): > 5 mM
4.6 ± 0.02 µM	20.6 ± 6.7 µM	C#CCCCn1c(Cc2cc(OC)c(OC)cc2Cl)nc2c(N)nc(F)nc21 [Example 14, 2-Fluoro-8-(2-chloro-4,5-dimethoxy-benzyl)-9-(pent-4-ynyl)adenine]	No	30 ± 1 µM	–
> 15 µM	55 ± 2.3 µM	C#CCCCn1c(Cc2cc(OC)c(OC)cc2Br)nc2c(N)nc(F)nc21 [Example 13, 2-Fluoro-8-(2-bromo-4,5-dimethoxy-benzyl)-9-(pent-4-ynyl)adenine]	No	> 50 µM	–
–	0.09 ± 0.002 µM	C#CCCCn1c(Sc2cc3c(cc2I)OCO3)nc2c(N)ncnc21 [Example 10, 8-(6-Iodo-benzo[1,3]dioxol-5-ylsulfanyl)-9-(pent-4-ynyl)adenine]	Yes	0.1 ± 0.01 µM	Lung/SKBr3 (Hsp90 lung): 136; EC50 (Hsp90 lung): 2.2 ± 0.4 µM; Heart/SKBr3 (Hsp90 heart): 370; EC50 (Hsp90 heart): 6 ± 0.2 µM; EC50 (Hsp90 SKBr3): 0.0161 ± 0.001 µM

Reference: patent US10167285B2, “Small-molecule HSP90 inhibitors” (Memorial Sloan Kettering Cancer Center, priority 2005, dated 2019)
